Measured values published in patent publication US10189841B2, “Purinones as ubiquitin-specific protease 1 inhibitors” (Forma Therapeutics, Inc., priority 2015, dated 2019).
pIC50: −log10 of the molar value.

Target: USP1 (construct USP1 (I-785, GG670, 671AA)/UAF1 (I-677)-Flag) (Homo sapiens (Human), UniProt O94782, G670A/G671A)
Assay: Ubiquitin-Rhodamine 110 assay for USP1 activity
Format: biochemical
Details: USP1/UAF1 25 pM, Ub-Rh110 25 nM, 30 min preincubation
Method in brief: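 Ub-Rh110 (25 nM, ≪Km) cleavage read at ex 485/em 535 in Tris pH 8.0, CaCl2, GSH, Prionex, Triton X-100. The screen used 10 µM compound, 100 pM USP1/UAF1 and 45 min at RT.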

Chain of USP1 (construct USP1 (I-785, GG670, 671AA)/UAF1 (I-677)-Flag) (O94782 whole entry G670A/G671A): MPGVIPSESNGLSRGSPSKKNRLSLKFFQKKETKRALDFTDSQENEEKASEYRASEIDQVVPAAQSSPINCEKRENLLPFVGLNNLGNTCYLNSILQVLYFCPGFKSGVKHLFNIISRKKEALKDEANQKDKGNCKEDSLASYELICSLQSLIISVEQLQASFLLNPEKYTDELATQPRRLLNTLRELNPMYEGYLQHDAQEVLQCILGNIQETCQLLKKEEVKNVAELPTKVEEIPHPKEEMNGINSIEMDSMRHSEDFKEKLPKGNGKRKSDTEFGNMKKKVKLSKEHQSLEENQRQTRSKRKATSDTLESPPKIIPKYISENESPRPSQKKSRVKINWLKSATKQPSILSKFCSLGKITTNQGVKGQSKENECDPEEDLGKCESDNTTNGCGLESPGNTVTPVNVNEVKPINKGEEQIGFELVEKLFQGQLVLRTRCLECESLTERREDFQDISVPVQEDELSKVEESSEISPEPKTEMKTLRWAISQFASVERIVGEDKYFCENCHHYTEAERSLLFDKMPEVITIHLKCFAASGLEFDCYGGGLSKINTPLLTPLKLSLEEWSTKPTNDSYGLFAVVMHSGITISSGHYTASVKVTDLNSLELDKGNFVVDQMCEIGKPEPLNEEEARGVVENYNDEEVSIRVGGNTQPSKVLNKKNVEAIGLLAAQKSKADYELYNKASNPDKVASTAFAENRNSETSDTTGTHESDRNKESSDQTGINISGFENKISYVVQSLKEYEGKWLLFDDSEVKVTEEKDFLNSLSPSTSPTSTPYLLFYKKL
Chain of USP1 (construct USP1 (I-785, GG670, 671AA)/UAF1 (I-677)-Flag) (Q8TAF3 whole entry partner): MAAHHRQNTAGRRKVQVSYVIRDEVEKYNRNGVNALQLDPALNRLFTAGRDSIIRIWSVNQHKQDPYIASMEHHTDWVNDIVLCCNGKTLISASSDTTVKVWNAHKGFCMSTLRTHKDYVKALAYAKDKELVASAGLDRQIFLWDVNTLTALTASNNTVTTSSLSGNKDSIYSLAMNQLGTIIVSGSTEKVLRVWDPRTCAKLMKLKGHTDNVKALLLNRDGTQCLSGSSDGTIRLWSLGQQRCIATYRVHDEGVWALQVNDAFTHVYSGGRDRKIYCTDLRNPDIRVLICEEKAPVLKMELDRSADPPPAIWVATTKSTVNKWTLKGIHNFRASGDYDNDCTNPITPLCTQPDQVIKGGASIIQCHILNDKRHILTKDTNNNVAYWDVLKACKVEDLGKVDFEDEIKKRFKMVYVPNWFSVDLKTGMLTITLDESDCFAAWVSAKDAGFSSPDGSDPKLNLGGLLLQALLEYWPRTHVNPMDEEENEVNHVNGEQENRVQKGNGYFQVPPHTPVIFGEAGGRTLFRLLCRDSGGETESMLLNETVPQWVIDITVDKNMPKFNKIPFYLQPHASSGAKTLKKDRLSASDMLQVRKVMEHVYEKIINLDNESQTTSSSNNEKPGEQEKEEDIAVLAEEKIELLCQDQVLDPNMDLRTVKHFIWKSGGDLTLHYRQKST

SMILES | pIC50
CC(C)c1ccccc1-c1ncc2[nH]c(=O)n(Cc3ccc(-n4cc(C(C)(C)N)nn4)cc3)c2n1 [Compound I-338, 9-(4-(4-(2-aminopropan-2-yl)-1H-1,2,3-triazol-1-yl)benzyl)-2-(2-isopropylphenyl)-7,9-dihydro-8H-purin-8-one] | < 5.70
CC(C)c1ccccc1-c1ncc2[nH]c(=O)n(Cc3ccc(-n4cc(CN(C)C)nn4)cc3)c2n1 [Compound I-339, 9-(4-(4-((dimethylamino)methyl)-1H-1,2,3-triazol-1-yl)benzyl)-2-(2-isopropylphenyl)-7,9-dihydro-8H-purin-8-one] | < 5.70
CC(C)c1ccccc1-c1ncc2[nH]c(=O)n(Cc3ccc(-n4cc(-c5ccccc5)nn4)cc3)c2n1 [Compound I-340, 2-(2-isopropylphenyl)-9-(4-(4-phenyl-1H-1,2,3-triazol-1-yl)benzyl)-7,9-dihydro-8H-purin-8-one] | 5.70 to 6.70
COc1ccc(-c2cn(-c3ccc(Cn4c(=O)[nH]c5cnc(-c6ccccc6C(C)C)nc54)cc3)nn2)cc1 [Compound I-341, 2-(2-isopropylphenyl)-9-(4-(4-(4-methoxyphenyl)-1H-1,2,3-triazol-1-yl)benzyl)-7,9-dihydro-8H-purin-8-one] | 5.70 to 6.70
CC(C)c1ccccc1-c1ncc2[nH]c(=O)n(Cc3ccc(-n4cc(CCO)nn4)cc3)c2n1 [Compound I-342, 9-(4-(4-(2-hydroxyethyl)-1H-1,2,3-triazol-1-yl)benzyl)-2-(2-isopropylphenyl)-7,9-dihydro-8H-purin-8-one] | 5.70 to 6.70
CC(C)c1ccccc1-c1ncc2[nH]c(=O)n(Cc3ccc(-n4cc(C5CC5)nn4)cc3)c2n1 [Compound I-343, 9-(4-(4-cyclopropyl-1H-1,2,3-triazol-1-yl)benzyl)-2-(2-isopropylphenyl)-7,9-dihydro-8H-purin-8-one] | 6.70 to 7.30
COCc1cn(-c2ccc(Cn3c(=O)[nH]c4cnc(-c5ccccc5C(C)C)nc43)cc2)nn1 [Compound I-344, 2-(2-isopropylphenyl)-9-(4-(4-(methoxymethyl)-1H-1,2,3-triazol-1-yl)benzyl)-7,9-dihydro-8H-purin-8-one] | 5.70 to 6.70
CC(C)c1ccccc1-c1ncc2[nH]c(=O)n(Cc3ccc(-n4cc(C(C)(C)O)nn4)cc3)c2n1 [Compound I-345, 9-(4-(4-(2-hydroxypropan-2-yl)-1H-1,2,3-triazol-1-yl)benzyl)-2-(2-isopropylphenyl)-7,9-dihydro-8H-purin-8-one] | 5.70 to 6.70
CCN(CC)Cc1cn(-c2ccc(Cn3c(=O)[nH]c4cnc(-c5ccccc5C(C)C)nc43)cc2)nn1 [Compound I-346, 9-(4-(4-((diethylamino)methyl)-1H-1,2,3-triazol-1-yl)benzyl)-2-(2-isopropylphenyl)-7,9-dihydro-8H-purin-8-one] | < 5.70
CC(C)c1ccccc1-c1ncc2[nH]c(=O)n(Cc3ccc(-n4cc([C@@H](C)O)nn4)cc3)c2n1 [Compound I-347, (R)-9-(4-(4-(1-hydroxyethyl)-1H-1,2,3-triazol-1-yl)benzyl)-2-(2-isopropylphenyl)-7,9-dihydro-8H-purin-8-one] | < 5.70
CCC(N)(CC)c1cn(-c2ccc(Cn3c(=O)[nH]c4cnc(-c5ccccc5C(C)C)nc43)cc2)nn1 [Compound I-348, 9-(4-(4-(3-aminopentan-3-yl)-1H-1,2,3-triazol-1-yl)benzyl)-2-(2-isopropylphenyl)-7,9-dihydro-8H-purin-8-one] | < 5.70
CC(C)c1ccccc1-c1ncc2[nH]c(=O)n(Cc3ccc(-n4cc(-c5ccccn5)nn4)cc3)c2n1 [Compound I-349, 2-(2-isopropylphenyl)-9-(4-(4-(pyridin-2-yl)-1H-1,2,3-triazol-1-yl)benzyl)-7,9-dihydro-8H-purin-8-one] | 5.70 to 6.70
CC(C)c1ccccc1-c1ncc2[nH]c(=O)n(Cc3ccc(-n4cc(CS(C)(=O)=O)nn4)cc3)c2n1 [Compound I-350, 2-(2-isopropylphenyl)-9-(4-(4-((methylsulfonyl)methyl)-1H-1,2,3-triazol-1-yl)benzyl)-7,9-dihydro-8H-purin-8-one] | < 5.70
CNC(=O)c1ccc(Cn2c(=O)[nH]c3cnc(-c4ccccc4C(C)C)nc32)cc1 [Compound I-351, 4-((2-(2-isopropylphenyl)-8-oxo-7,8-dihydro-9H-purin-9-yl)methyl)-N-methylbenzamide] | 6.70 to 7.30
COCCNC(=O)c1ccc(Cn2c(=O)[nH]c3cnc(-c4ccccc4C(C)C)nc32)cc1 [Compound I-352, 4-((2-(2-isopropylphenyl)-8-oxo-7,8-dihydro-9H-purin-9-yl)methyl)-N-(2-methoxyethyl)benzamide] | 5.70 to 6.70
CC(C)c1ccccc1-c1ncc2[nH]c(=O)n(Cc3ccc(C(=O)NC4CC4)cc3)c2n1 [Compound I-353, N-cyclopropyl-4-((2-(2-isopropylphenyl)-8-oxo-7,8-dihydro-9H-purin-9-yl)methyl)benzamide] | 6.70 to 7.30
CC(C)c1ccccc1-c1ncc2[nH]c(=O)n(Cc3ccc(C(=O)NCc4ccc(F)cc4)cc3)c2n1 [Compound I-354, N-(4-fluorobenzyl)-4-((2-(2-isopropylphenyl)-8-oxo-7,8-dihydro-9H-purin-9-yl)methyl)benzamide] | 6.70 to 7.30

SMILES | pIC50
CC(C)c1ccccc1-c1ncc2[nH]c(=O)n(Cc3ccc(C(=O)N(C)C)cc3)c2n1 [Compound I-355, 4-((2-(2-isopropylphenyl)-8-oxo-7,8-dihydro-9H-purin-9-yl)methyl)-N,N-dimethylbenzamide] | > 7.30
CC(C)NC(=O)c1ccc(Cn2c(=O)[nH]c3cnc(-c4ccccc4C(C)C)nc32)cc1 [Compound I-356, N-isopropyl-4-((2-(2-isopropylphenyl)-8-oxo-7,8-dihydro-9H-purin-9-yl)methyl)benzamide] | > 7.30
CC(C)CNC(=O)c1ccc(Cn2c(=O)[nH]c3cnc(-c4ccccc4C(C)C)nc32)cc1 [Compound I-357, N-isobutyl-4-((2-(2-isopropylphenyl)-8-oxo-7,8-dihydro-9H-purin-9-yl)methyl)benzamide] | 6.70 to 7.30
CC(C)c1ccccc1-c1ncc2[nH]c(=O)n(Cc3ccc(C(=O)NC4CCCC4)cc3)c2n1 [Compound I-358, N-cyclopentyl-4-((2-(2-isopropylphenyl)-8-oxo-7,8-dihydro-9H-purin-9-yl)methyl)benzamide] | 6.70 to 7.30
CC(C)c1ccccc1-c1ncc2[nH]c(=O)n(Cc3ccc(C(=O)NC4(c5ccccc5)CCCC4)cc3)c2n1 [Compound I-359, 4-((2-(2-isopropylphenyl)-8-oxo-7,8-dihydro-9H-purin-9-yl)methyl)-N-(1-phenylcyclopentyl)benzamide] | 6.70 to 7.30
CC(C)c1ccccc1-c1ncc2[nH]c(=O)n(Cc3ccc(C(=O)NCc4nccn4C)cc3)c2n1 [Compound I-360, 4-((2-(2-isopropylphenyl)-8-oxo-7,8-dihydro-9H-purin-9-yl)methyl)-N-((1-methyl-1H-imidazol-2-yl)methyl)benzamide] | 5.70 to 6.70
CC(C)c1ccccc1-c1ncc2[nH]c(=O)n(Cc3ccc(C(=O)NCc4cnn(C)c4)cc3)c2n1 [Compound I-361, 4-((2-(2-isopropylphenyl)-8-oxo-7,8-dihydro-9H-purin-9-yl)methyl)-N-((1-methyl-1H-pyrazol-4-yl)methyl)benzamide] | 5.70 to 6.70
CCN(CC)C(=O)c1ccc(Cn2c(=O)[nH]c3cnc(-c4ccccc4C(C)C)nc32)cc1 [Compound I-362, N,N-diethyl-4-((2-(2-isopropylphenyl)-8-oxo-7,8-dihydro-9H-purin-9-yl)methyl)benzamide] | > 7.30
CC(C)c1ccccc1-c1ncc2[nH]c(=O)n(Cc3ccc(C(=O)N4CCOCC4)cc3)c2n1 [Compound I-363, 2-(2-isopropylphenyl)-9-(4-(morpholine-4-carbonyl)benzyl)-7,9-dihydro-8H-purin-8-one] | 6.70 to 7.30
CC(C)c1ccccc1-c1ncc2[nH]c(=O)n(Cc3ccc(C(=O)N(C)C4CCCCC4)cc3)c2n1 [Compound I-364, N-cyclohexyl-4-((2-(2-isopropylphenyl)-8-oxo-7,8-dihydro-9H-purin-9-yl)methyl)-N-methylbenzamide] | > 7.30
CC(C)c1ccccc1-c1ncc2[nH]c(=O)n(Cc3ccc(C(=O)N(C)Cc4ccc(F)cc4)cc3)c2n1 [Compound I-365, N-(4-fluorobenzyl)-4-((2-(2-isopropylphenyl)-8-oxo-7,8-dihydro-9H-purin-9-yl)methyl)-N-methylbenzamide] | 6.70 to 7.30
CC1CCN(C(=O)c2ccc(Cn3c(=O)[nH]c4cnc(-c5ccccc5C(C)C)nc43)cc2)CC1 [Compound I-366, 2-(2-isopropylphenyl)-9-(4-(4-methylpiperidine-1-carbonyl)benzyl)-7,9-dihydro-8H-purin-8-one] | 6.70 to 7.30
CC(C)c1ccccc1-c1ncc2[nH]c(=O)n(Cc3ccc(C(=O)N(C)C4CCOCC4)cc3)c2n1 [Compound I-367, 4-((2-(2-isopropylphenyl)-8-oxo-7,8-dihydro-9H-purin-9-yl)methyl)-N-methyl-N-(tetrahydro-2H-pyran-4-yl)benzamide] | 6.70 to 7.30
COCC1CCCN(C(=O)c2ccc(Cn3c(=O)[nH]c4cnc(-c5ccccc5C(C)C)nc43)cc2)C1 (stereo not drawn) [Compound I-368, 2-(2-isopropylphenyl)-9-(4-(3-(methoxymethyl)piperidine-1-carbonyl)benzyl)-7,9-dihydro-8H-purin-8-one] | 6.70 to 7.30
CC(C)c1ccccc1-c1ncc2[nH]c(=O)n(Cc3ccc(C(=O)N4CCC[C@H]4C)cc3)c2n1 [Compound I-369, (R)-2-(2-isopropylphenyl)-9-(4-(2-methylpyrrolidine-1-carbonyl)benzyl)-7,9-dihydro-8H-purin-8-one] | > 7.30
COCCN(C(=O)c1ccc(Cn2c(=O)[nH]c3cnc(-c4ccccc4C(C)C)nc32)cc1)C(C)C [Compound I-370, N-isopropyl-4-((2-(2-isopropylphenyl)-8-oxo-7,8-dihydro-9H-purin-9-yl)methyl)-N-(2-methoxyethyl)benzamide] | 6.70 to 7.30
